Source: patent US20090043123A1, “Dilute Stabilized Peracetic Acid Production and Treatment Process” (priority 2007, published 2009)

Columns and labels:
[1] = cited from earlier work
[2] = Stability/decomposition of peracetic acid formed in buffered aqueous medium (Example 1, FIG. 4); format: physicochemical; details: 25° C.
Description: The mole ratio of hydrogen peroxide to acetic anhydride used in this Example 1 was 5.7 moles H2O2 per mole of acetic anhydride, a mole ratio that provided a large stoichiometric excess of hydrogen peroxide. Three pH values were used: 10.0, 6.8 and 4.5. The aqueous medium in each study was appropriately buffered to maintain the specific pH value throughout the duration of the run.
In each of the three runs, the operating procedure was as follows. A dilute aqueous buffered hydrogen peroxide solution, containing 585 ppm H2O2, was prepared and maintained at a temperature of 25° C. No hydrogen peroxide stabilizers were added to the solution. Acetic anhydride, undiluted (i.e., 100%) and in an amount sufficient to provide the desired 5.7:1 mole ratio of H2O2:acetic anhydride, was added to the buffered hydrogen peroxide solution. Measurements of peracetic acid and hydrogen peroxide concentrations were obtained from samples taken periodically over a period of 180 minutes. Results of these three studies, as peracetic acid concentration vs. time, are plotted in the graph shown as FIG. 4.

[3] = aqueous solution; cited from earlier work
microorganisms = details: as low as 1 or 2 ppm peracetic acid; cited from earlier work

Row | Compound | solubility in water [1] | peracetic stability ([2]; pH 6.8, buffered aqueous medium, 5.7:1 H2O2:acetic anhydride, followed over 180 minutes) | decomposition of the peracetic acid formed ([2]; pH 10.0, buffered aqueous medium, after peracetic acid formation was complete) | acid dissociation constant (pKa) [3] | activity at very low concentrations (microorganisms)
1 | CC(=O)OC(C)=O [Acetic anhydride] | less than 3 wt % |  |  |  | 
2 | Peracetic acid |  | relatively good | high | 8.2 | very active
